Measurements: the supplement of paper PMC11061612

Key:
Assay in all cases: combination Emax (second highest fraction inhibited in the dose matrix, 72 h); higher = more inhibition; extreme values may be limits of the assay
A498 (Kidney Carcinoma) = system: A498 (Kidney Carcinoma)
Procedure, shortened: (§1)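 Bliss excess equals the observed combination effect minus the expected value EA + EB − EA·EB, where EA and EB are the effects of each agent alone. Combination Emax is the second-highest inhibition within the matrix. Inhibition was scaled from CellTiter-Glo 2.0 luminescence, with 0 set by vehicle wells and 1 by blank wells, after 72 hours of two-drug dosing of cells plated in 1536-well plates.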

[1] = system: COLO-320-HSR (Colorectal Carcinoma)
Procedure, shortened: as §1

[2] = system: COR-L311 (Small Cell Lung Carcinoma)
Procedure, shortened: as §1

LN-405 (Glioblastoma) = system: LN-405 (Glioblastoma)
Procedure, shortened: as §1

[3] = system: NCI-H1693 (Lung Adenocarcinoma)
Procedure, shortened: as §1

[4] = system: NCI-H2141 (Small Cell Lung Carcinoma)
Procedure, shortened: as §1

| SMILES | combination Emax (A498 (Kidney Carcinoma)) | combination Emax [1] | combination Emax [2] | combination Emax (LN-405 (Glioblastoma)) | combination Emax [3] | combination Emax [4] |
| --- | --- | --- | --- | --- | --- | --- |
| CCN(CCO)CCCOc1ccc2c(Nc3cc(CC(=O)Nc4cccc(F)c4)[nH]n3)ncnc2c1 [AZD2811] + O=C(c1cc(Cc2n[nH]c(=O)c3ccccc23)ccc1F)N1CCN(C(=O)C2CC2)CC1 [Olaparib] (first compound max 1 µM, 7x7, partner max 10 µM) | 0.241 | 0.0695 | 0.673 | 0.192 | 0.236 | 0.307 |
| COc1cccc(OCCCN)c1-c1cc(Nc2cnc(C#N)cn2)n[nH]1 [Prexasertib] + CCc1c2c(nc3ccc(O)cc13)-c1cc3c(c(=O)n1C2)COC(=O)[C@]3(O)CC [SN-38] (first compound max 1 µM, 7x7, partner max 0.3 µM) | 0.733 | 0.838 | 1 | 0.669 | 0.925 | 0.881 |
| CN(C)CCCOc1ccc(-c2ccc3ncc4c(c3c2)n(C2CCOCC2)c(=O)n4C)cn1 [AZD0156] + C[C@@H]1COCCN1C2=NC(=NC(=C2)C3(CC3)[S@](=N)(=O)C)C4=C5C=CNC5=NC=C4 [AZD6738] (first compound max 1 µM, 7x7, partner max 10 µM) | 0.703 | 0.652 | 0.408 | 0.376 | 0.192 | 0.462 |
| COc1cccc(OCCCN)c1-c1cc(Nc2cnc(C#N)cn2)n[nH]1 [Prexasertib] + C[C@@H]1COCCN1C2=NC(=NC(=C2)C3(CC3)[S@](=N)(=O)C)C4=C5C=CNC5=NC=C4 [AZD6738] (first compound max 1 µM, 7x7, partner max 10 µM) | 0.692 | 0.726 | 0.771 | 0.553 | 0.389 | 0.573 |
| CC1(C)CCC(CN2CCN(c3ccc(C(=O)NS(=O)(=O)c4ccc(NCC5CCOCC5)c([N+](=O)[O-])c4)c(Oc4cnc5[nH]ccc5c4)c3)CC2)=C(c2ccc(Cl)cc2)C1 [Venetoclax] + Cn1cnc2c(F)c(Nc3ccc(Br)cc3Cl)c(C(=O)NOCCO)cc21 [Selumetinib] (first compound max 1 µM, 7x7, partner max 3 µM) | 0.433 | 0.083 | 0.635 | 0.182 | 0.26 | 0.159 |
| Cc1c2c(nn1C)CSCc1cc(n(C)n1)CSc1cc(c3ccccc3c1)OCCCc1c(C(=O)O)n(C)c3c-2c(Cl)ccc13 [AZD5991] + C[C@@H](Nc1cc(F)cc(F)c1)c1cc(C(=O)N(C)C)cc2c(=O)cc(N3CCOCC3)oc12 [AZD8186] (first compound max 1 µM, 7x7, partner max 3 µM) | 0.742 | 0.907 | 0.508 | 0.572 | 0.236 | 0.3 |
| CN(C)CCCOc1ccc(-c2ccc3ncc4c(c3c2)n(C2CCOCC2)c(=O)n4C)cn1 [AZD0156] + C=CCn1c(=O)c2cnc(Nc3ccc(N4CCN(C)CC4)cc3)nc2n1-c1cccc(C(C)(C)O)n1 [AZD1775] (first compound max 1 µM, partner max 1 µM) | 0.544 | 0.719 | 0.56 | 0.134 | 0.179 | 0.558 |
| CN(CCO)CC[C@H](CSc1ccccc1)Nc1ccc(S(=O)(=O)NC(=O)c2ccc(N3CCC([C@@H](O)c4ccccc4-c4ccc(Cl)cc4)CC3)cc2)cc1S(=O)(=O)C(F)(F)F [AZD4320] + C1CN(CCC1(C(=O)N[C@@H](CCO)C2=CC=C(C=C2)Cl)N)C3=NC=NC4=C3C=CN4 [Capivasertib] (first compound max 1 µM, 7x7, partner max 3 µM) | 0.57 | 0.0137 | 1 | 0.45 |  | 0.829 |
| CC(=O)c1c(C)c2cnc(Nc3ccc(N4CCNCC4)cn3)nc2n(C2CCCC2)c1=O [Palbociclib] + CN(CC[C@H](CSC1=CC=CC=C1)NC2=C(C=C(C=C2)S(=O)(=O)NC(=O)C3=CC=C(C=C3)N4CCC(CC4)[C@H](C5=CC=CC=C5C6=CC=C(C=C6)Cl)O)S(=O)(=O)C(F)(F)F)CCO [AZD4320] (first compound max 10 µM, 7x7, partner max 1 µM) | 0.658 |  | 1 | 0.69 | 0.803 | 0.883 |
| COc1nnc2ccc(N3CCC(c4ccc(OCCN5CCN(C)C(=O)[C@H]5C)cc4)CC3)nn12 [AZD5153] + CN(CC[C@H](CSC1=CC=CC=C1)NC2=C(C=C(C=C2)S(=O)(=O)NC(=O)C3=CC=C(C=C3)N4CCC(CC4)[C@H](C5=CC=CC=C5C6=CC=C(C=C6)Cl)O)S(=O)(=O)C(F)(F)F)CCO [AZD4320] (first compound max 1 µM, 7x7, partner max 1 µM) | 0.66 |  | 1 | 0.723 | 0.628 | 0.941 |
| C[C@@H](c1ccc2nccn2c1)n1nnc2ncc(-c3cnn(C)c3)nc21 [Savolitinib] + CN(CC[C@H](CSC1=CC=CC=C1)NC2=C(C=C(C=C2)S(=O)(=O)NC(=O)C3=CC=C(C=C3)N4CCC(CC4)[C@H](C5=CC=CC=C5C6=CC=C(C=C6)Cl)O)S(=O)(=O)C(F)(F)F)CCO [AZD4320] (first compound max 1 µM, 7x7, partner max 1 µM) | 0.308 |  | 1 | 0.455 | 0.182 | 0.744 |
